Assay results reported in publication PMC8693655, “Functional Characterization of BrF3'H, Which Determines the Typical Flavonoid Profile of Purple Chinese Cabbage” (Frontiers in Plant Science, 2021).
Like-named read-outs stand apart in the source and are kept apart here. Each block holds one compound with its values, some of them ahead of it.

Molecular target: T1, BrF3′H (BrF3′H-8267) (Brassica rapa, UniProt M4CYL5)
T1 construct: full-length ORF, 511 residues, C-terminal V5 and 6xHis tags (pYES-DEST52); yeast WAT11 microsomes with Arabidopsis reductase ATR1 as redox partner
Experiment: HPLC of […]'-hydroxylation by yeast microsomes
Assay type: biochemical
Conditions: 1 mM NADPH, 100 mM Tris-Cl pH 7.5, 30°C, 20 min, 10 μg microsomal protein, Arabidopsis ATR1 reductase

T1 sequence (M4CYL5 entry or part of it): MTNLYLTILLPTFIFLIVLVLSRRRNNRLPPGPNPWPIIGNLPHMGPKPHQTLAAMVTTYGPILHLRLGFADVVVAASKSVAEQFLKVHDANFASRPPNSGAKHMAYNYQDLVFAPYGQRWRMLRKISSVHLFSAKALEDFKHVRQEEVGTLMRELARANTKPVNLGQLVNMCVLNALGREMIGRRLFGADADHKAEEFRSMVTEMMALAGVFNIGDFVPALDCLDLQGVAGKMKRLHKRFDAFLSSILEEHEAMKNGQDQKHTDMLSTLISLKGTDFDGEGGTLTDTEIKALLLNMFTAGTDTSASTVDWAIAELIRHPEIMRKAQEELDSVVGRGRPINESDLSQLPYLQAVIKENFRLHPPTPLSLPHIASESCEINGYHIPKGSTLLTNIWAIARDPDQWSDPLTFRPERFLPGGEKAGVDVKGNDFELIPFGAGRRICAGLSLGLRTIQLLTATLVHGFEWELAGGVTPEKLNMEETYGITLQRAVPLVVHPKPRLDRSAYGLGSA

Km (read-out: Substrates / Nar): 1720 ± 152 µM
Compound: O=C1CC(c2ccc(O)cc2)Oc2cc(O)cc(O)c21 (racemic) [Nar, naringenin]

Km (read-out: Substrates / K): 942 ± 65 µM
Compound: O=c1c(O)c(-c2ccc(O)cc2)oc2cc(O)cc(O)c12 [K, kaempferol]

Km (read-out: Substrates / DHK): 3600 µM
Compound: O=C1c2c(O)cc(O)cc2OC(c2ccc(O)cc2)C1O (racemic) [DHK, dihydrokaempferol]
